Measurements as given in patent publication US12590081B2, “Fused imidazole derivatives, preparation method and medicinal use thereof” (Jiangsu Hengrui Pharmaceuticals Co., Ltd., priority 2020, dated 2026).

Target: T1, GLP-1 receptor (Homo sapiens, UniProt P43220)
T1 construct: expressed in transfected cells
Assay: Agonist activity against GLP-1 receptor, CRE-luciferase reporter (ONE-Glo) in CHO-K1/CRE-luc/GLP-1 receptor cells
Format: cell-based
Conditions: 6 h incubation, luciferase readout
Description: This experiment was intended to test the agonist activity of the compound molecules against the GLP-1 receptor and evaluate the in vitro activity of the molecules according to EC50. The experiment adopted a ONE-Glo™ Luciferase Assay System (Promega, E6110). Under the action of compound molecules, GLP-1R downstream signaling pathways were activated to cause elevated cAMP level. The combination of cAMP and CRE could start the transcription expression of CRE downstream luciferase genes, the luciferase could emit fluorescence when reacting with substrates thereof, and the activity of the compound for agonizing GLP-1 receptors was reflected by measuring fluorescence signals through a ONE-Glo™ reagent.
Stably-expressed CHO-K1/CRE-luc/GLP-1 receptor cell strains (self-construction of GLP-1 receptor plasmid; CRE-luc plasmid Promega E8471) was constructed. CHO-K1/CRE-luc/GLP-1 receptor cells were digested, and resuspended after centrifugation. Single cell suspension was uniformly mixed, and adjusted to a viable cell density of 2.5×10^5 cell/mL with a cell culture medium (DME/F-12+10% FBS), and the resulting solution was added to a 96-well cell culture plate at 90 μL/well (Corning, #3903). The plate was incubated in an incubator for 16 h (37° C., 5% CO2).
The compound was dissolved in DMSO to prepare a stock solution with an initial concentration of 20 mM. The starting concentration of the small molecule compound was 0.2 mM, and the compound underwent 3-fold serial dilution for a total of 10 concentration points, with DMSO at the 11th point. To another 96-well plate was added 95 μL of cell culture medium (DME/F-12+10% FBS), 5 μL of test samples with different concentrations were added to each well, followed by uniform mixing, and then 10 μL of test samples with different concentrations were added to each well, with two duplicate wells set for each sample. The plate was incubated in an incubator for 6 h (37° C., 5% CO2). The 96-well cell culture plate was taken out, and 100 μL of ONE-Glo™ reagent was added to each well, followed by incubation at room temperature for 10 min. The plate was placed in a microplate reader (EnVision 2105, PE) for determination of chemiluminescence.
Data were processed and analyzed using Microsoft Excel and Graphpad Prism 5.

T1 sequence (P43220 24-463): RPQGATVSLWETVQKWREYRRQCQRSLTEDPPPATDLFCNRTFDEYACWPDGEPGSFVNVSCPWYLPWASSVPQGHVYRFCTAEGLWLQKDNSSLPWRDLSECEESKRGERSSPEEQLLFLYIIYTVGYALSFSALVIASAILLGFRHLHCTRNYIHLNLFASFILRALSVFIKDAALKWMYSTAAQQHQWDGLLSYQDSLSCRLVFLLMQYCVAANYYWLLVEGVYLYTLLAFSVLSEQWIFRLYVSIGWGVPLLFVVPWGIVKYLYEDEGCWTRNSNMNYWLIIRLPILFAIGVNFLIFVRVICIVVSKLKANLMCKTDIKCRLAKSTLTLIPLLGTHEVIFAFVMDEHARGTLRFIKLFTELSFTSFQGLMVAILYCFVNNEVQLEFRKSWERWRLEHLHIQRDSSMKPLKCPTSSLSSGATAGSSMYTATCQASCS

| Compound | EC50 [nM] | Emax [%] |
| --- | --- | --- |
| CC1(c2ccc(Cl)cc2F)Oc2cccc(C3=CCN(Cc4nc5ccc(C(=O)O)cc5n4C[C@@H]4CCO4)CC3)c2O1 (stereo partly drawn) [Example 2, 2-((4-(2-(4-chloro-2-fluorophenyl)-2-methylbenzo[d][1,3]dioxol-4-yl)-3,6-dihydropyridin-1(2H)-yl)methyl)-1-(((S)-oxetan-2-yl)methyl)-1H-benzo[d]imidazole-6-carboxylic acid] | 0.92 | 110 |
| CC(Oc1cccc(C2=CCN(Cc3nc4ccc(C(=O)O)cc4n3C[C@@H]3CCO3)CC2)n1)c1ccc(Cl)cc1F (stereo partly drawn) [Example 3] | 1.38 | 106 |
| N#Cc1ccc(CSc2cccc(C3=CCN(Cc4nc5ccc(C(=O)O)cc5n4C[C@@H]4CCO4)CC3)n2)c(F)c1 [Example 5, (S)-2-((6-(4-cyano-2-fluorobenzyl)thio-3′,6′-dihydro-[2,4′-bipyridin]-1′(2′H)-yl)methyl)-1-(oxetan-2-ylmethyl)-1H-benzo[d]imidazole-6-carboxylic acid] | 1.93 | 110 |

Molecules with a lower EC50, results first:

| EC50 [nM] | Emax [%] | Compound |
| --- | --- | --- |
| 0.12 | 110 | N#Cc1ccc(COc2cccc(C3=CCN(Cc4nc5ccc(C(=O)O)cc5n4C[C@@H]4CCO4)CC3)n2)c(F)c1 [Example 1] |
| 0.12 | 104 | C[C@]1(c2ccc(Cl)cc2F)Oc2cccc(C3=CCN(Cc4nc5ccc(C(=O)O)cc5n4C[C@@H]4CCO4)CC3)c2O1 [Example 4, 2-((4-((S)-2-(4-chloro-2-fluorophenyl)-2-methylbenzo[d][1,3]dioxol-4-yl)-3,6-dihydropyridin-1(2H)-yl)methyl)-1-(((S)-oxetan-2-yl)methyl)-1H-benzo[d]imidazole-6-carboxylic acid] |
| 0.85 | 108 | N#Cc1ccc(CSc2nc(C3=CCN(Cc4nc5ccc(C(=O)O)cc5n4C[C@@H]4CCO4)CC3)ccc2F)c(F)c1 [Example 6, (S)-2-((6-(4-cyano-2-fluorobenzyl)thio-5-fluoro-3′,6′-dihydro-[2,4′-bipyridin]-1′(2′H)-yl)methyl)-1-(oxetan-2-ylmethyl)-1H-benzo[d]imidazole-6-carboxylic acid] |
| 0.45 | 107 | C[C@]1(c2ccc(Cl)cc2F)Oc2cccc(C3=CCN(Cc4nc5ccc(C(=O)O)nc5n4C[C@@H]4CCO4)CC3)c2O1 [Example 7, 2-((4-((S)-2-(4-chloro-2-fluorophenyl)-2-methylbenzo[d][1,3]dioxol-4-yl)-3,6-dihydropyridin-1(2H)-yl)methyl)-3-(((S)-oxetan-2-yl)methyl)-3H-imidazo[4,5-b]pyridine-5-carboxylic acid] |

Target: T2, hERG potassium ion channel (Homo sapiens, UniProt Q12809)
T2 construct: expressed in transfected cells
T2 sequence (Q12809 whole entry): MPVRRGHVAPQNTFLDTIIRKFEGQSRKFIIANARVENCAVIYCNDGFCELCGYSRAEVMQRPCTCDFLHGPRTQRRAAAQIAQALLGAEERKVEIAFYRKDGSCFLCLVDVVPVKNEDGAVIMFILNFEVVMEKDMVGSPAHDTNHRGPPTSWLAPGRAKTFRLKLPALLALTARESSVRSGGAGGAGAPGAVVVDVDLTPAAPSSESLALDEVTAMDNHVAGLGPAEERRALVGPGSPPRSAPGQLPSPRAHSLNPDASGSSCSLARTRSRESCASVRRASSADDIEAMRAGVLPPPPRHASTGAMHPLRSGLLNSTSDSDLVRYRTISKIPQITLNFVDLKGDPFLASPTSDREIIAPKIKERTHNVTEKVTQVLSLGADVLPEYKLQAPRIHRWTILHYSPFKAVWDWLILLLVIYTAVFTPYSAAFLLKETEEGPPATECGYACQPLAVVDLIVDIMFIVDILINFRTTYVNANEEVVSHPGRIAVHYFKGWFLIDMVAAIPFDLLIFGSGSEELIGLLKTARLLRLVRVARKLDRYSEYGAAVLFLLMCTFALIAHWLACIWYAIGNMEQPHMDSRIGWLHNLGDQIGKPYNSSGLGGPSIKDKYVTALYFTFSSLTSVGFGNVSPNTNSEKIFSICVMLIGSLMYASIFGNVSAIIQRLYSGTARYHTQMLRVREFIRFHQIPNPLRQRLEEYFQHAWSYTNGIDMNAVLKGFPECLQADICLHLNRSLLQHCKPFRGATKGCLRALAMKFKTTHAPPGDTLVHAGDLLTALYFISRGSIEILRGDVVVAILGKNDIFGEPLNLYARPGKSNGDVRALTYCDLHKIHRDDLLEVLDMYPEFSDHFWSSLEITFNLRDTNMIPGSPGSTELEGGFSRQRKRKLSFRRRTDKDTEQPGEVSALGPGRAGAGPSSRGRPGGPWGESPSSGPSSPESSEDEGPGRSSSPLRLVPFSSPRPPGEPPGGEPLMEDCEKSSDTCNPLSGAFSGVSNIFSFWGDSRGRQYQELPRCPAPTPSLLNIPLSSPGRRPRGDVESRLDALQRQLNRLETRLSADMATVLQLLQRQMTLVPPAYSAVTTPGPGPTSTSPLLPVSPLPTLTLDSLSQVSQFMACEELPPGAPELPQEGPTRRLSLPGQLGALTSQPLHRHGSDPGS
Assay: Blocking effect on hERG potassium currents, automated patch clamp in HEK293-hERG cells
Format: cell-based
Conditions: automated patch clamp (Patchliner)
Method: The blocking effect of hERG potassium currents by the compounds of the present disclosure was tested in a stable cell strain transfected with an hERG potassium channel using an automated patch clamp.
HEK293 cell lines were transfected with pCDNA3.1(+) from which the hERG gene had been constructed, and then stably-expressed monoclonal HEK293-hERG cell strains were selected by addition of G418. Stably-expressed HEK293-hERG cell strains were subcultured at a density of 1:4 in an MEM/EBSS medium (10% FBS, […] G418, 1% MEM non-essential amino acid solution (100×), 1% sodium pyruvate solution) and subjected to an automated patch clamp experiment within 48-72 h after the start of the culture. On the day of experiment, the cells were digested with […] pancreatin (life technologies, 12563-029), collected by centrifugation and resuspended in an extracellular fluid (140 mM NaCl, 4 mM KCl, 1 mM MgCl2, 2 mM CaCl2, 5 mMD glucose monohydrate, 10 mM HEPES, pH 7.4, 298 mOsmol) to prepare a cell suspension. The cell suspension was placed on the cell bank of the Patchliner instrument that transferred the cells to the chip (NPC-16) using a negative pressure controller. […] The currents at various concentrations of the compound and in the blank control were analyzed by data analysis software provided by HEAK EPC10 patch clamp amplifier (Nanion) and Pathlinersoftware and Pathcontrol HTsoftware. […]

| Compound | IC50 [nM] |
| --- | --- |
| C[C@]1(c2ccc(Cl)cc2F)Oc2cccc(C3=CCN(Cc4nc5ccc(C(=O)O)cc5n4C[C@@H]4CCO4)CC3)c2O1 [Example 4, 2-((4-((S)-2-(4-chloro-2-fluorophenyl)-2-methylbenzo[d][1,3]dioxol-4-yl)-3,6-dihydropyridin-1(2H)-yl)methyl)-1-(((S)-oxetan-2-yl)methyl)-1H-benzo[d]imidazole-6-carboxylic acid] | 22000 |
